Results from ChEMBL document CHEMBL4665643 (Bioorg Med Chem Lett, 2019).

Experiments:
[1] = target: Casein kinase I isoform epsilon (Homo sapiens) (UniProt P49674); experiment: Inhibition of recombinant human His-tagged full length CK1epsilon expressed in baculovirus expression system using Ser/Thr 11 as substrate at 0.1 uM incubated for 60 mins by Z'-Lyte assay relative to control
[2] = target: Aurora kinase B (Homo sapiens) (UniProt Q96GD4); experiment: Inhibition of recombinant human His-tagged full length Aurora B expressed in baculovirus expression system using Ser/Thr 01 as substrate at 0.1 uM incubated for 60 mins by Z'-Lyte assay relative to control
[3] = target: Focal adhesion kinase 1 (Homo sapiens) (UniProt Q05397); experiment: Inhibition of recombinant human GST-tagged full length FAK expressed in baculovirus expression system using Tyr 07 as substrate at 0.1 uM incubated for 60 mins by Z'-Lyte assay relative to control
[4] = target: T1, Inhibitor of nuclear factor kappa-B kinase subunit epsilon (Homo sapiens) (UniProt Q14164); experiment: Inhibition of recombinant human GST-tagged full length IKKepsilon expressed in baculovirus expression system using Ser/Thr 11 as substrate at 0.1 uM incubated for 60 mins by Z'-lyte assay relative to control
T1 sequence (whole entry): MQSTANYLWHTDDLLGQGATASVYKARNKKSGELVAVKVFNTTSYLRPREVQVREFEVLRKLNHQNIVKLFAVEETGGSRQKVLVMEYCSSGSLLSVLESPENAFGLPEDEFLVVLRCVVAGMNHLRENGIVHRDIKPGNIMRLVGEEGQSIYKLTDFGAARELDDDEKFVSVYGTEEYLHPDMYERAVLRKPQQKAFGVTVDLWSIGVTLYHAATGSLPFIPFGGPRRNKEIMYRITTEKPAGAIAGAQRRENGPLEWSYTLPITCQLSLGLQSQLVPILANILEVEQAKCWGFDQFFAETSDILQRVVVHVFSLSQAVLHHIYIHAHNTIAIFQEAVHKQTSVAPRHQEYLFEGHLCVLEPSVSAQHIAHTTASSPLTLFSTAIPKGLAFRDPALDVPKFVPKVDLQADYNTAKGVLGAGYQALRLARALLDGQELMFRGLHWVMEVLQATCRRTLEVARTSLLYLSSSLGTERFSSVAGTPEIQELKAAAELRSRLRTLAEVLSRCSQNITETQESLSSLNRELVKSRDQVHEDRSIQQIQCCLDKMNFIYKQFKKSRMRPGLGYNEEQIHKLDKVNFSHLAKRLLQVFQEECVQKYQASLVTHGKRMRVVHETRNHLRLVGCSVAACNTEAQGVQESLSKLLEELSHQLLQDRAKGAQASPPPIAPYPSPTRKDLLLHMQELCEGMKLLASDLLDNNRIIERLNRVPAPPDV

[5] = target: Calcium/calmodulin-dependent protein kinase type 1D (Homo sapiens) (UniProt Q8IU85); experiment: Inhibition of recombinant human His-tagged full length CAMK1delta expressed in baculovirus expression system using Ser/Thr 25 as substrate at 0.1 uM incubated for 60 mins by Z'-Lyte assay relative to control
[6] = target: Mitogen-activated protein kinase 3 (Homo sapiens) (UniProt P27361); experiment: Inhibition of recombinant human GST-tagged full length ERK1 expressed in Escherichia coli expression system using Ser/Thr 03 as substrate at 0.1 uM incubated for 60 mins by Z'-Lyte assay relative to control
[7] = target: Tyrosine-protein kinase JAK1 (Homo sapiens, UniProt P23458)
[8] = target: Serine/threonine-protein kinase B-raf (Homo sapiens) (UniProt P15056); experiment: Inhibition of recombinant human GST-tagged full length BRAF expressed in baculovirus expression system using Ser/Thr 03 as substrate at 0.1 uM incubated for 60 mins by Z'-Lyte assay relative to control
[9] = target: Protein kinase C beta type (Homo sapiens) (UniProt P05771); experiment: Inhibition of recombinant human GST-tagged full length PKCbeta2 expressed in insect expression system using Ser/Thr 07 as substrate at 0.1 uM incubated for 60 mins by Z'-lyte assay relative to control
[10] = target: Mitogen-activated protein kinase 9 (Homo sapiens) (UniProt P45984); experiment: Inhibition of recombinant human His-tagged full length JNK2 expressed in baculovirus expression system using Ser/Thr 04 as substrate at 0.1 uM incubated for 60 mins by Z'-lyte assay relative to control
[11] = target: Myosin light chain kinase, smooth muscle (Homo sapiens) (UniProt Q15746); experiment: Inhibition of tracer 236 binding to recombinant human GST-tagged MYLK (1428 to 1771 residues) expressed in baculovirus expression system at 0.1 uM incubated for 60 mins by Lanthascreen assay relative to control
[12] = target: cAMP-dependent protein kinase catalytic subunit alpha (Homo sapiens) (UniProt P17612); experiment: Inhibition of recombinant human His-tagged PKA (1 to 351 residues) expressed in Escherichia coli expression system using Ser/Thr 01 as substrate at 0.1 uM incubated for 60 mins by Z'-lyte assay relative to control
[13] = target: Macrophage colony-stimulating factor 1 receptor (Homo sapiens) (UniProt P07333); experiment: Inhibition of recombinant human His-tagged CSF1R (538 to 910 residues) expressed in baculovirus expression system using Tyr 01 as substrate at 0.1 uM incubated for 60 mins by Z'-Lyte assay relative to control
Sequence of Macrophage colony-stimulating factor 1 receptor (Homo sapiens) (P07333 whole entry, the tested form may be a part): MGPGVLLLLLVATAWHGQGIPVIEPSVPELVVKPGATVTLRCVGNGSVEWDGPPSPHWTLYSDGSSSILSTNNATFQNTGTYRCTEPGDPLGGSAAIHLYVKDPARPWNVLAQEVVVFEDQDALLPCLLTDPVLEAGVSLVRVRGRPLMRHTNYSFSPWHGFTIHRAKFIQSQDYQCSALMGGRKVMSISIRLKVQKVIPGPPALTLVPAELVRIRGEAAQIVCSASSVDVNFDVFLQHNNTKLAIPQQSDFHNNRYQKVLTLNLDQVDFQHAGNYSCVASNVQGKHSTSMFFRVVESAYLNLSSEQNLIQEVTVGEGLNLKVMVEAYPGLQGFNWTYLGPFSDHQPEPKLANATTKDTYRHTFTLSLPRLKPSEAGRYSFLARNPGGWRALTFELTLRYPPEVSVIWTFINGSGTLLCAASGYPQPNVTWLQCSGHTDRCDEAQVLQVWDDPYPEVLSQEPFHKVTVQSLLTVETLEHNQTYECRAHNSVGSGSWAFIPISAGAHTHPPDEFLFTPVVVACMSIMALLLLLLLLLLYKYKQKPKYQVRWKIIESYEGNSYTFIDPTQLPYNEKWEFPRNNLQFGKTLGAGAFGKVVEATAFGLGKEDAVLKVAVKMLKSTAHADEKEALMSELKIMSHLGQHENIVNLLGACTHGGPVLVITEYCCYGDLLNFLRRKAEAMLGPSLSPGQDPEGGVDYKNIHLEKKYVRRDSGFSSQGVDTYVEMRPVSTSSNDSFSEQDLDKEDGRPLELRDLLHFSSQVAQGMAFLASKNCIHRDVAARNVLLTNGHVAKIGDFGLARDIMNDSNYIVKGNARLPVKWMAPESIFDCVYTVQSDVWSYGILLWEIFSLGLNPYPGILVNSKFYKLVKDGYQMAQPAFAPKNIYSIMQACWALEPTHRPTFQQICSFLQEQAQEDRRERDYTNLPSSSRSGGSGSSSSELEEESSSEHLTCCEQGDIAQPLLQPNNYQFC

Sequence of Casein kinase I isoform epsilon (Homo sapiens) (P49674 whole entry, looked up, canonical isoform): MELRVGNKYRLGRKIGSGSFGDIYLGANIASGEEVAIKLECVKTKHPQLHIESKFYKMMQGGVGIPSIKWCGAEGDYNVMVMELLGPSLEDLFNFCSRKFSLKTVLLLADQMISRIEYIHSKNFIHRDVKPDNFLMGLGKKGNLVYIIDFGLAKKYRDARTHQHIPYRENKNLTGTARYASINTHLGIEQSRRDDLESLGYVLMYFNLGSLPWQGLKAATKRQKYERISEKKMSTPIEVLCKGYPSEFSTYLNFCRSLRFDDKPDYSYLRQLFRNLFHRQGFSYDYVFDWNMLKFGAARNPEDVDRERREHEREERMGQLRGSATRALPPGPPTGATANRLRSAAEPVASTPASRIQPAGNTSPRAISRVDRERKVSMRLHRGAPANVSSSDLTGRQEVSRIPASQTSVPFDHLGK
Sequence of Myosin light chain kinase, smooth muscle (Homo sapiens) (Q15746 whole entry, the tested form may be a part): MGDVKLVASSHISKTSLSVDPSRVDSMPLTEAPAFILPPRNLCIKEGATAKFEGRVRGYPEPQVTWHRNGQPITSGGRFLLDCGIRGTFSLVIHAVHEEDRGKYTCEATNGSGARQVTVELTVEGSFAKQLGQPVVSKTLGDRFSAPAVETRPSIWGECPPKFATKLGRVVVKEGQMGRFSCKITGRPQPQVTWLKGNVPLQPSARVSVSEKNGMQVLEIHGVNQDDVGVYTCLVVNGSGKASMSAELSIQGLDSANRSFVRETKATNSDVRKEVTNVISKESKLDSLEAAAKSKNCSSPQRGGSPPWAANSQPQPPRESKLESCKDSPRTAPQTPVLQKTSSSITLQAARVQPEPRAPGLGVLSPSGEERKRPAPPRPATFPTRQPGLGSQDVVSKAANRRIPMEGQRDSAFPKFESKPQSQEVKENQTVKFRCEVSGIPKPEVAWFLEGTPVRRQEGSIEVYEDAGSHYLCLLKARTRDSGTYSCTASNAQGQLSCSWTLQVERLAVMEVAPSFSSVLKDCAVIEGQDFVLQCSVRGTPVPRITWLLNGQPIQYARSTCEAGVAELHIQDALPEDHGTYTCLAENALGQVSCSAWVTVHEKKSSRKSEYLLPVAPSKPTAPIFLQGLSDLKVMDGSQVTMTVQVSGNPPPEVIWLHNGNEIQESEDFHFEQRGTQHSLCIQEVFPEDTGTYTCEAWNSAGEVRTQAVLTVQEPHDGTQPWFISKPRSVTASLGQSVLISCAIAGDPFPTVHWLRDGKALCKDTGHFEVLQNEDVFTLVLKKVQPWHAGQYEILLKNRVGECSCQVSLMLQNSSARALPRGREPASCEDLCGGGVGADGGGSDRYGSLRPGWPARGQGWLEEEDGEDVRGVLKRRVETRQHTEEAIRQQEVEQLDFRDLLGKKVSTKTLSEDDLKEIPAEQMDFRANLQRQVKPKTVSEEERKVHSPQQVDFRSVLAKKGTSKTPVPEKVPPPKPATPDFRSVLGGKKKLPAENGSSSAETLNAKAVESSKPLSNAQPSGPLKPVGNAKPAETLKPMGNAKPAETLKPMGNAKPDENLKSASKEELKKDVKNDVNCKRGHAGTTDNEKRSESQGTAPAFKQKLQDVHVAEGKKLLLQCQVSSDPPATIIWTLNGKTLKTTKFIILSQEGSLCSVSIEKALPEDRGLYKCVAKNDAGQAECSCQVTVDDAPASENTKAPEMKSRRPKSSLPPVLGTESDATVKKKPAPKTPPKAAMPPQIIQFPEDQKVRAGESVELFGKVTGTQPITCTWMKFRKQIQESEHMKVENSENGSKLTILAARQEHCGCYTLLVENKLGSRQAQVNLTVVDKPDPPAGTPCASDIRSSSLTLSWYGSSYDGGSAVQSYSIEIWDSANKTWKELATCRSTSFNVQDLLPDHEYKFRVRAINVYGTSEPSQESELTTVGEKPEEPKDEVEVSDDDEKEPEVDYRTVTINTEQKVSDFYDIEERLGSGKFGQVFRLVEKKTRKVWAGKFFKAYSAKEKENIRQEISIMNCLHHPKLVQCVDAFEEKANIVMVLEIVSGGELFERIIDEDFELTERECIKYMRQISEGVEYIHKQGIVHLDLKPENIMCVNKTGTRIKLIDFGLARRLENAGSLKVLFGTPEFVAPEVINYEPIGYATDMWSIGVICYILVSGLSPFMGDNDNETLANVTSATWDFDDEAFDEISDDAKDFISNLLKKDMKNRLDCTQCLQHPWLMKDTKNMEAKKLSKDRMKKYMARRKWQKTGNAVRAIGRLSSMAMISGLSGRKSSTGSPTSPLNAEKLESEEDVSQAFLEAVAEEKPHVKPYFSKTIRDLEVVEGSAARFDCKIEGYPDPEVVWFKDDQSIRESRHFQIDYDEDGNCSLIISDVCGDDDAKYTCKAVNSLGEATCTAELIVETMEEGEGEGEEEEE
Sequence of Calcium/calmodulin-dependent protein kinase type 1D (Homo sapiens) (Q8IU85 whole entry, looked up): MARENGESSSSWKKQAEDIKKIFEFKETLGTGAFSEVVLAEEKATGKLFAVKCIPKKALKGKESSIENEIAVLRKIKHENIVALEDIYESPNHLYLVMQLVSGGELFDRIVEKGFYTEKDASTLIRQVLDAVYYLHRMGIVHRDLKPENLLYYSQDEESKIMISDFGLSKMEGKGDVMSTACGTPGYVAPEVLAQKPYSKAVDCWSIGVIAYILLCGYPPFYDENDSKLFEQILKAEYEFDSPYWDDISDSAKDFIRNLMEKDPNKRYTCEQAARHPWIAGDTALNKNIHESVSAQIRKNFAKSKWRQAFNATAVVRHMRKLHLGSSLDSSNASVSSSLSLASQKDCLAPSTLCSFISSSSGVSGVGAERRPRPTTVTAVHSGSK
Sequence of Aurora kinase B (Homo sapiens) (Q96GD4 whole entry): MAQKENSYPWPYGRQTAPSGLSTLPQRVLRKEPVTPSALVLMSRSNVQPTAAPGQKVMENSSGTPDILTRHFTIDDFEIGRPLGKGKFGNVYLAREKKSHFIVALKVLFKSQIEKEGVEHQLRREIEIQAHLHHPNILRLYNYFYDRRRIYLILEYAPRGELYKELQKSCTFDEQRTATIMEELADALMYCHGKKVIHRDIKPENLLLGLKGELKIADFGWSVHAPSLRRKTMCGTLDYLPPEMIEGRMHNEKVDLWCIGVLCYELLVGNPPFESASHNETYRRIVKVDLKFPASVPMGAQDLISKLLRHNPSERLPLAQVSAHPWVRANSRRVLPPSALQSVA
Sequence of Serine/threonine-protein kinase B-raf (Homo sapiens) (P15056 whole entry): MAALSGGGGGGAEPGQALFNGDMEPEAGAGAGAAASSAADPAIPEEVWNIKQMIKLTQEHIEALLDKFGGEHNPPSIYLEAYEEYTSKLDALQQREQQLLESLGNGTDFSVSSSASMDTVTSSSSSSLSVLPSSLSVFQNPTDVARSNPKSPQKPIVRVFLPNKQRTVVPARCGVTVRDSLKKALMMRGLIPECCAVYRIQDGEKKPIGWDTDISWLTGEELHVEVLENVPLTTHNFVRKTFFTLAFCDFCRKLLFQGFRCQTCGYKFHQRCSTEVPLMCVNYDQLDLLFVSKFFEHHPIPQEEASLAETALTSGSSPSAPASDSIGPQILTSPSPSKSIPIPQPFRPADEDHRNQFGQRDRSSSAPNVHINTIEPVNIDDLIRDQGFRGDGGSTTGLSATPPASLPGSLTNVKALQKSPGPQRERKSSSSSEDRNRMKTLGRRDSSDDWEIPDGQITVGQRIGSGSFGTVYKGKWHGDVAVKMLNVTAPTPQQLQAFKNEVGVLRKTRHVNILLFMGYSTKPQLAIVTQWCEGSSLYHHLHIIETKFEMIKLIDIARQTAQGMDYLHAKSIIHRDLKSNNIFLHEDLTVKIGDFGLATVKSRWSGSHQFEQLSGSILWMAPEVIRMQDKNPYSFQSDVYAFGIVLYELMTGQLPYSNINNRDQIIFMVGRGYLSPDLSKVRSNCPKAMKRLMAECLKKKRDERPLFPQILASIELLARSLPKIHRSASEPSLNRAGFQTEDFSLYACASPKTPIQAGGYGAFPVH

Structure (SMILES)	inhibition [1] [%]	inhibition [2] [%]	inhibition [3] [%]	inhibition [4] [%]	inhibition [5] [%]	inhibition [6] [%]	IC50 [7] [nM]	inhibition [8] [%]	inhibition [9] [%]	inhibition [10] [%]	inhibition [11] [%]	inhibition [12] [%]	inhibition [13] [%]
Cn1cc(NC(=O)c2cnn3cccnc23)c(-c2cc(Cl)ccc2OC(F)F)n1	-1	1	15	5	6	4	1.7	5	12	-2	11	-4	29
O=C(Nc1c[nH]nc1-c1cc(Cl)ccc1OC(F)F)c1cnn2cccnc12	5	3	14	8	8	5	1.2	1	21	16	2	5	6
O=C(Nc1c[nH]nc1-c1cc2ccccc2cc1OC(F)F)c1cnn2cccnc12	6	5	20	3	15	0	2.2	4	17	0	0	5	-3
